Experimental data as given in PubChem BioAssay (NCI).
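Growth conditions: 96-well plates. Treatment: test compound, 48 hours, 5 concentrations. Analysis: linear interpolation between bracketing concentrations; unreached endpoints set to highest concentration. Abbreviation: GI50, concentration required for 50% inhibition of growth. The concentration for full growth arrest is given as TGI.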

Columns and labels:
Assay in all cases: NCI anticancer screen, dose series, 48 h; in the data active means GI50 below about 0.43 µM; inactive means the rest
[1] = tested on: TK-10 renal
[2] = tested on: NCI-H226 lung
[3] = tested on: OVCAR-3 ovarian
[4] = tested on: U251 CNS
[5] = tested on: MCF7 breast
[6] = tested on: MOLT-4 leukemia
[7] = tested on: HOP-92 NSCLC
[8] = tested on: DU-145 prostate
[9] = tested on: MDA-MB-231 breast
[10] = tested on: HCT-116 colon
[11] = tested on: HCT-15 colon
[12] = tested on: HCC-2998 colon
[13] = tested on: K-562 leukemia
[14] = tested on: NCI-H522 lung
[15] = tested on: PC-3 prostate
[16] = tested on: SK-MEL-2 melanoma
[17] = tested on: MALME-3M melanoma
[18] = tested on: SN12C renal
[19] = tested on: SF-539 CNS
[20] = tested on: EKVX NSCLC
[21] = tested on: NCI-H460 lung
[22] = tested on: COLO 205 colon
[23] = tested on: HS 578T breast
[24] = tested on: UACC-257 melanoma
[25] = tested on: SK-MEL-28 melanoma
[26] = tested on: SW-620 colon
[27] = tested on: T-47D breast
[28] = tested on: UACC-62 melanoma
[29] = tested on: MDA-MB-435
[30] = tested on: NCI-H23 lung
[31] = tested on: KM12 colon
[32] = tested on: IGROV1 ovarian
[33] = tested on: NCI/ADR-RES ovarian
[34] = tested on: CCRF-CEM leukemia
[35] = tested on: SF-295 CNS
[36] = tested on: A549 NSCLC
[37] = tested on: HOP-62 NSCLC
[38] = tested on: LOX IMVI melanoma
[39] = tested on: BT-549 breast
[40] = tested on: A498 renal
[41] = tested on: OVCAR-5 ovarian
[42] = tested on: RPMI-8226 leukemia
[43] = tested on: CAKI-1 renal
[44] = tested on: OVCAR-8 ovarian
[45] = tested on: HL-60(TB) leukemia
[46] = tested on: SK-OV-3 ovarian
[47] = tested on: SNB-19 CNS
[48] = tested on: M14 melanoma
[49] = tested on: SK-MEL-5 melanoma
[50] = tested on: SR leukemia
[51] = tested on: SF-268 CNS
[52] = tested on: 786-0 renal
[53] = tested on: ACHN renal
[54] = tested on: OVCAR-4 ovarian
[55] = tested on: HT29 colon
[56] = tested on: SNB-75 CNS
[57] = tested on: RXF 393 renal

O=C(/C=C(/C=C/c1cccc2[nH]ccc12)OB(F)F)/C=C/c1cccc2[nH]ccc12
1020 nM: TGI [38]
5860 nM: TGI [19]
5150 nM: TGI [7]
4160 nM: TGI [47]
951 nM: TGI [10]
4090 nM: TGI [39]
1230 nM: TGI [3]
5190 nM: TGI [9]
3410 nM: TGI [15]
7420 nM: TGI [1]
3420 nM: TGI [40]
3920 nM: TGI [30] | TGI [55]
3630 nM: TGI [12]
26800 nM: TGI [27]
5540 nM: TGI [20]
1490 nM: TGI [11]
11800 nM: TGI [24]
2970 nM: TGI [28]
3150 nM: TGI [22]
6000 nM: TGI [32]
inactive: GI50 [1] 1930 nM | GI50 [2] 1870 nM | GI50 [4] 469 nM | GI50 [5] 436 nM | GI50 [7] 1860 nM | GI50 [8] 753 nM | GI50 [9] 1550 nM | GI50 [12] 1910 nM | GI50 [15] 815 nM | GI50 [16] 2090 nM | GI50 [17] 1010 nM | GI50 [18] 687 nM | GI50 [19] 2160 nM | GI50 [20] 1460 nM | GI50 [21] 684 nM | GI50 [22] 771 nM | GI50 [23] 1500 nM | GI50 [24] 2150 nM | GI50 [25] 1040 nM | GI50 [27] 796 nM | GI50 [28] 833 nM | GI50 [29] 475 nM | GI50 [30] 838 nM | GI50 [31] 949 nM | GI50 [32] 620 nM | GI50 [35] 1760 nM | GI50 [36] 1620 nM | GI50 [37] 2310 nM | GI50 [39] 1030 nM | GI50 [40] 1700 nM | GI50 [41] 1420 nM | GI50 [43] 876 nM | GI50 [45] 641 nM | GI50 [46] 2190 nM | GI50 [47] 1440 nM | GI50 [48] 1070 nM | GI50 [49] 1260 nM | GI50 [50] 460 nM | GI50 [51] 1130 nM | GI50 [52] 477 nM | GI50 [53] 514 nM | GI50 [54] 554 nM | GI50 [55] 516 nM
14200 nM: TGI [36]
> 100000 nM: TGI [13] | TGI [23] | TGI [33] | TGI [44] | TGI [50]
3980 nM: TGI [51]
9400 nM: TGI [37]
2040 nM: TGI [53]
8560 nM: TGI [17]
6930 nM: TGI [48]
5030 nM: TGI [52]
2070 nM: TGI [8]
5450 nM: TGI [18]
24700 nM: TGI [54]
3720 nM: TGI [6]
2550 nM: TGI [29] | TGI [42]
2540 nM: TGI [31]
2730 nM: TGI [25] | TGI [49]
3590 nM: TGI [41]
9450 nM: TGI [5]
7230 nM: TGI [45]
2910 nM: TGI [21]
4610 nM: TGI [35]
5630 nM: TGI [16]
1830 nM: TGI [4]
2240 nM: TGI [14]
3130 nM: TGI [43]
1580 nM: TGI [26]
5770 nM: TGI [46]
5590 nM: TGI [2]
active: GI50 [3] 353 nM | GI50 [6] 385 nM | GI50 [10] 277 nM | GI50 [11] 348 nM | GI50 [13] 423 nM | GI50 [14] 359 nM | GI50 [26] 393 nM | GI50 [33] 399 nM | GI50 [34] 324 nM | GI50 [38] 348 nM | GI50 [42] 354 nM | GI50 [44] 347 nM

CC[C@]12C=CCN3CC[C@@]4(c5ccc(OC)cc5N(C)[C@H]4[C@@](O)(C(=O)OC)[C@@H]1OC(=O)CCC(=O)O[C@H]1CC[C@H]4[C@@H]5CCC6=CC(=O)CC[C@@H]6[C@H]5CC[C@]14C)[C@@H]32
7210 nM: TGI [19]
31400 nM: TGI [56]
2570 nM: TGI [45]
inactive: GI50 [1] 1910 nM | GI50 [2] 2070 nM | GI50 [56] 1080 nM | GI50 [3] 1730 nM | GI50 [4] 1910 nM | GI50 [5] 1520 nM | GI50 [6] 1550 nM | GI50 [7] 1070 nM | GI50 [8] 2730 nM | GI50 [9] 2210 nM | GI50 [10] 1550 nM | GI50 [11] 1510 nM | GI50 [12] 1980 nM | GI50 [13] 1820 nM | GI50 [14] 1800 nM | GI50 [15] 996 nM | GI50 [16] 1240 nM | GI50 [17] 1640 nM | GI50 [18] 1640 nM | GI50 [19] 1750 nM | GI50 [20] 1700 nM | GI50 [21] 3010 nM | GI50 [22] 941 nM | GI50 [23] 2380 nM | GI50 [24] 2650 nM | GI50 [25] 2170 nM | GI50 [26] 2120 nM | GI50 [27] 1790 nM | GI50 [28] 1120 nM | GI50 [29] 1930 nM | GI50 [30] 1980 nM | GI50 [31] 1880 nM | GI50 [57] 1330 nM | GI50 [32] 973 nM | GI50 [33] 1690 nM | GI50 [34] 1660 nM | GI50 [35] 1690 nM | GI50 [36] 1640 nM | GI50 [37] 2400 nM | GI50 [38] 1510 nM | GI50 [39] 1620 nM | GI50 [40] 1380 nM | GI50 [41] 1900 nM | GI50 [42] 1070 nM | GI50 [43] 1560 nM | GI50 [44] 2240 nM | GI50 [45] 1070 nM | GI50 [46] 2040 nM | GI50 [47] 2310 nM | GI50 [48] 1920 nM | GI50 [49] 990 nM | GI50 [50] 1520 nM | GI50 [51] 2170 nM | GI50 [52] 1990 nM | GI50 [53] 1570 nM | GI50 [54] 1790 nM | GI50 [55] 1600 nM
9380 nM: TGI [39]
2100 nM: TGI [49]
9420 nM: TGI [40]
4630 nM: TGI [38]
2850 nM: TGI [16]
> 50000 nM: TGI [1] | TGI [2] | TGI [4] | TGI [5] | TGI [6] | TGI [8] | TGI [9] | TGI [10] | TGI [11] | TGI [12] | TGI [13] | TGI [14] | TGI [15] | TGI [18] | TGI [20] | TGI [21] | TGI [23] | TGI [24] | TGI [25] | TGI [26] | TGI [27] | TGI [29] | TGI [30] | TGI [31] | TGI [33] | TGI [34] | TGI [35] | TGI [36] | TGI [37] | TGI [41] | TGI [43] | TGI [44] | TGI [46] | TGI [47] | TGI [48] | TGI [50] | TGI [51] | TGI [52] | TGI [53] | TGI [54]
31900 nM: TGI [3]
4210 nM: TGI [57]
11400 nM: TGI [55]
3130 nM: TGI [28] | TGI [32]
4080 nM: TGI [7]
1940 nM: TGI [22]
21100 nM: TGI [17]
3110 nM: TGI [42]
